The record followed here is patent US20100197625A1, “SYNTHETIC LIPOPHILIC INOSITOL GLYCANS FOR TREATMENT OF CANCER AND GLUCOSE-METABOLISM DISORDERS” (priority 2006, published 2010).

Entries after “also recorded” stand apart in the source; their conditions may differ.

The test system of test [1] is Panc-1 cells. As to the kind of experiment: Cell proliferation / cell death assay, Panc-1. Type of test: cell-based, human. As to the method: (§1) Human pancreatic cancer cell lines (Panc-1, MiaPaca2, BXPC3, Aspc 1), human hepatoma cell line (HuH7), human gastric cancer cell lines (AGS, MKN45), human colon cancer cell line (CoCM-1), human mammary cancer cell line (MCF-7), human neuroblastoma (SH-SY5Y), human prostate cancer cells (PC3), and murine Ehrlich ascites cancer cells and mouse 3T3-L1 fibroblasts were obtained from American Type Culture Collection (Rockville, Md., USA). The cancer cells were cultured in RPMI 1640 containing 10% fetal calf serum. Cultures were maintained at 37° C. in a humidified atmosphere of 5% CO2.
(§2) Cell proliferation assays were performed with the CellTiter 96 AQueous One Solution Cell Proliferation Assay kit according to the manufacturer's instructions (Promega, Madison, Wis., USA). Briefly, 5×10^3 cells/well in medium were placed onto 96-well plates. IGs were added to cellular cultures at final concentrations of 0, 1, 10, and 100 μM. […] of CellTiter 96 AQueous One Solution Reagent, which contains a tetrazolium compound, 3-(4,5-dimethylthiazol-2-yl)-5-(3-carboxymethoxyphenyl)-2-(4-sulfophenyl)-2H-tetrazolium, an inner salt; MTS was added to the culture medium. After incubating the plate for 1 h in a CO2 incubator, absorbance at 490 nm was recorded with a 96-well plate reader.

A further test deals with human hepatoma (HuH7). Briefly: Cell proliferation / cell death assay, HuH7. The format is cell-based. The conditions noted are these: HuH7, 10-100 μM. As for the experimental part: as §1, §2
The test system of test [2] is human neuroblastoma (SH-SY5Y). Briefly: Cell proliferation / cell death assay, SH-SY5Y. The conditions noted are these: 10-100 μM. The format is cell-based. As to the method:
as §1, §2

Test [3] relates to human mammary cancer cells (MCF-7). Briefly: Cell proliferation / cell death assay, MCF-7. The format is cell-based. As to conditions: MCF-7, 10-100 μM. As for the experimental part: as §1
(§3) Cell proliferation assays were performed with the CellTiter 96 AQueous One Solution Cell Proliferation Assay kit according to the manufacturer's instructions (Promega, Madison, Wis., USA). Briefly, 5×10^3 cells/well in medium were placed onto 96-well plates. IGs were added to cellular cultures at final concentrations of 0, 1, 10, and 100 μM. Cultures were incubated for 3 days or 7 days and then added to 20 μL/well of CellTiter 96 AQueous One Solution Reagent, which contains a tetrazolium compound, 3-(4,5-dimethylthiazol-2-yl)-5-(3-carboxymethoxyphenyl)-2-(4-sulfophenyl)-2H-tetrazolium, an inner salt; MTS was added to the culture medium. After incubating the plate for 1 h in a CO2 incubator, absorbance at 490 nm was recorded with a 96-well plate reader.

For a further test, the system named is BXPC3. As to the kind of experiment: Cell proliferation / cell death assay, BXPC3. Type of test: cell-based, human. As to conditions: BXPC3, 10-100 μM. As for the experimental part:
as §1, §3

The next test deals with STZ-diabetic mice. As to the kind of experiment: Intraperitoneal IG1 for 7 days, STZ-diabetic mice. Type of test: in vivo. As for the experimental part: Male C57BL/6 mice were housed individually and given free access to a standard diet (65% carbohydrate, 4% fat, and 24% protein) or a high-fat diet (Quick Fat; 60.2% carbohydrate, 15.3% fat, and 24.5% protein; Clea Japan, Tokyo, Japan), starting at 5 weeks of age, for 5 weeks. Db/db mice also were housed individually and given free access to a standard diet. C57BL/6 mice at 5 weeks of age, were received a single dose of 75 μg/g body weight streptozotoxin (STZ). 7 days after injections, the mice, whose fasting plasma glucose concentrations were over 400 mg/dl, were used as STZ-diabetic mice. […]
Frozen livers were homogenized, and triglycerides were extracted with CHCl3:CH3OH (2:1, vol:vol), dried and resuspended in 2-propanol (17). Triglyceride contents were measured using Lipidos liquid (TOYOBO, Osaka, Japan). […] Glycogen content was determined by the phenol-sulfuric acid spectrophotometric method at 490 nm (18) and expressed as micrograms of glycogen per milligram of liver.
Blood glucose was assayed with Glucose Ace (Sanwa Kagaku Kenkyusho, Nagoya, Japan). Serum insulin and leptin were determined with ELISA kits (Morinaga Institute of Biological Science, Yokohama, Japan). Serum adiponectin and tumor necrosis factor-α (TNF-α) concentrations were measured with an ELISA kit (Ohtsuka Pharmaceutical, Tokyo, Japan) and a TNF-α assay kit (Amersham Biosciences, Uppsala, Sweden), respectively. […]

Another test deals with 3T3-L1 adipocytes. Briefly: Glycogen synthesis in 3T3-L1 adipocytes. Type of test: cell-based, mouse. As to conditions: 10-1000 μM. As to the method:
3T3-L1 fibroblasts were maintained in Dulbecco's modified Eagle's medium (DMEM) with 25 mM glucose plus 10% fetal bovine serum (FBS). Following 2 days at confluence, differentiation was initiated by the addition of DMEM containing 10% FBS, 167 nM insulin, […] dexamethasone, and 0.5 mM isobutylmethylxanthine. Three days later, the medium was replaced with DMEM plus 10% FBS and 167 nM insulin. After 2 more days, the medium was switched to DMEM plus 10% fetal bovine serum. Adipocytes were used 6-14 days after completion of the differentiation protocol, when >90% of the cells expressed the adipocyte phenotype. Prior to experiments, cells were washed two times with DMEM medium containing 5 mM glucose, 0.2% bovine serum albumin, 25 mM Hepes (pH 7.4), 100 units/ml penicillin, 100 units/ml streptomycin and 0.29 mg/ml glutamine, and were incubated in the same medium for 2 h. Glycogen and lipid synthesis were measured in 24-well dishes. […] The lipids were then extracted overnight with 5 ml of Betafluor (National Diagnostics), and glucose incorporation into lipid was measured by scintillation counting. 400 μl of the cell suspension was added to 600 μl of 50% KOH, and glycogen was precipitated and radioactivity was counted by a liquid scintillation counter

Test [4] relates to Panc-1 cells. Briefly: ATP contents in Panc-1 cells. The format is cell-based, human. As to conditions: 1 hour incubation in serum free media. As to the method:
as §1

In a further test the test system is MiaPaca2. Briefly: Cell proliferation / cell death assay, MiaPaca2. The format is cell-based, human. As to conditions: MiaPaca2, 10-100 μM. As to the method:
as §1, §3

A further test relates to Aspc1. Briefly: Cell proliferation / cell death assay, Aspc1. Type of test: cell-based, human. The conditions noted are these: Aspc1, 10-100 μM. As to the method:
as §1, §3

In the case of `CCCCCCCCCCCCCCCC(=O)O[C@@H]1C(O)C(O)[C@H](O)C(O[C@H]2OC(CO)[C@@H](O)[C@H](O)C2N)C1O` (stereo in doubt) [IG1, 2-Amino-2-deoxy-α-D-glucopyranosyl-(1→6)-2-palmitoyl-D-myo-inositol], the cell death result in the test on Panc-1 cells [1] (Panc-1, 1 hour after addition, 10-100 μM) is reported as “induced very rapid cell death; also recorded: induced rapid cell death”; with Panc-1 cells [1] (Panc-1, after 24 hours), “induced rapid cell death”; in the test on Panc-1 cells [1] (Panc-1, after 3 days (72 hours)), “induced rapid cell death”. The “rapid cancer cell death” value (with human hepatoma (HuH7); in [2]; in test [3]; with BXPC3; with MiaPaca2; in the test with Aspc1) was “rapid cancer cell death was demonstrated” each time. In addition, the “hepatic and muscular glycogen synthesis” value in the test with STZ-diabetic mice (intraperitoneal 7 days, data not shown) is “increases hepatic and muscular glycogen synthesis”. The “fasting plasma glucose concentrations” value with STZ-diabetic mice (intraperitoneal, 0.3 mg per mice, for every 7 days) is recorded as “significantly reduced fasting plasma glucose concentrations”. In addition, the glycogen synthesis result in the test with 3T3-L1 adipocytes is “stimulates”. In the test on Panc-1 cells [4], the ATP contents result is “does not affect ATP contents”.
